Data on ten compounds can be found in US11512090B2, “Muscarinic acetylcholine M1 receptor antagonists” (PIPELINE THERAPEUTICS, INC., priority 2018, dated 2022).

Common to all, as to assay type: cell-based
One test has as its target T1, M2 (Homo sapiens, UniProt P08172).
T1 sequence (P08172 1-466): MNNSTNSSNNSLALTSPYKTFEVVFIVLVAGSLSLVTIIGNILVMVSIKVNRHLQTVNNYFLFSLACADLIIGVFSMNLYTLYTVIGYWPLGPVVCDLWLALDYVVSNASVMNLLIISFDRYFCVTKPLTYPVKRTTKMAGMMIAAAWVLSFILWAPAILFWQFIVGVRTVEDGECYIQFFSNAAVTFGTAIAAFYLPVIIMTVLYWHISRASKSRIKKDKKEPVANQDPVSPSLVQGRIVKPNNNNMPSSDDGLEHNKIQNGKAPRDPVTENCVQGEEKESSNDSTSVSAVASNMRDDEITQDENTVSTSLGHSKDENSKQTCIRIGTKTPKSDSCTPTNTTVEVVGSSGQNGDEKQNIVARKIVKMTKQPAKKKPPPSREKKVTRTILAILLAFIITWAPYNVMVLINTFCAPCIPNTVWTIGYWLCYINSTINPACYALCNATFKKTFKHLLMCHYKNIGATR
In words: In vitro functional assay of muscarinic acetylcholine receptor activity, M2.

In a further test the target is T2, human M1 receptor (Homo sapiens, UniProt P11229).
T2 sequence (P11229 1-460): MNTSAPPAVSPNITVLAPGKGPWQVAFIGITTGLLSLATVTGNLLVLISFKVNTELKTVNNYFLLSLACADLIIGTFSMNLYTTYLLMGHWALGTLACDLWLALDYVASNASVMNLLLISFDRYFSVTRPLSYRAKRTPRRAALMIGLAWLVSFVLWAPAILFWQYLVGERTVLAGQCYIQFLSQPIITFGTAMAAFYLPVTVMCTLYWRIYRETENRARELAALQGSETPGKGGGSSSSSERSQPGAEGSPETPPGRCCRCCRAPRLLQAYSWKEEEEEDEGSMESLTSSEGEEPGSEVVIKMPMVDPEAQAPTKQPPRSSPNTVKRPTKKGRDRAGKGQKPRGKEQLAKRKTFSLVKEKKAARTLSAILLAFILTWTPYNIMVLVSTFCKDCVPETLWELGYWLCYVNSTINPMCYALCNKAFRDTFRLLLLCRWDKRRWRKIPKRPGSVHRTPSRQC
In words: In vitro functional assay of muscarinic acetylcholine receptor activity (aequorin calcium flux, antagonist mode vs EC80 acetylcholine), M1. Summed up: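 Antagonism at M1 was measured as a concentration-dependent reduction of the EC80 acetylcholine-evoked aequorin luminescence, from which IC50 was derived. Human M1 CHO-K1 aequorin cells were first loaded with 5 uM coelenterazine h for 4 h and exposed to compound for 30 min at room temperature.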
A general note: A change in cytosolic calcium serves as a functional read-out for many receptors and channels.

The next test has as its target M3 (Homo sapiens, UniProt P20309). The test can be described thus: In vitro functional assay of muscarinic acetylcholine receptor activity, M3. The following applies: antagonist IC50 at M3; read-out: M3 IC50.
[1] abbreviates: antagonist IC50 at M2, read-out: M2 IC50.
The mark [2] stands for this setting: CHO-K1 cells stably expressing human M1 receptor with Aequorin, decrease in EC80 acetylcholine response, read-out: M1 IC50.

Where two headings read alike, the source gives them in different places.

Chain of M3 (P20309 whole entry): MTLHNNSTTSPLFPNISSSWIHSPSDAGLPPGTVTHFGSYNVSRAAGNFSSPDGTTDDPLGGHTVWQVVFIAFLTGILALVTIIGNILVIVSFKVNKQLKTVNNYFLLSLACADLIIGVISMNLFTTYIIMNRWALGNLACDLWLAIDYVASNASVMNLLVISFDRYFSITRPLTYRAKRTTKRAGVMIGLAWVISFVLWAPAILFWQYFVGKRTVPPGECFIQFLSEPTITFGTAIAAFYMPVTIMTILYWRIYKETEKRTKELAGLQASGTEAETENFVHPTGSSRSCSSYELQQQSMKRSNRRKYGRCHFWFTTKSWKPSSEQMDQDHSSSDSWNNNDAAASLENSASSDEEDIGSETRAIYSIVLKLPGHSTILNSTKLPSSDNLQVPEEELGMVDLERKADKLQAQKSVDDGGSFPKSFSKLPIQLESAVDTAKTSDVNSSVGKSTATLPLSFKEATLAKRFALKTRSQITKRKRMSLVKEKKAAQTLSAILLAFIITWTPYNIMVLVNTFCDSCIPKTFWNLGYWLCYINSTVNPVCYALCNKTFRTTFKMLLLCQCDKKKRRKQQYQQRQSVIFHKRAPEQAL

Take `N#Cc1ccc(N2C3CCC2CN(C(=O)COCc2cccc4ncnn24)C3)nc1` [Example 182, 6-{3-[2-({[1,2,4]triazolo[1,5-a]pyridin-5-yl}methoxy)acetyl]-3,8-diazabicyclo[3.2.1]octan-8-yl}pyridine-3-carbonitrile]: the IC50 (as a rule, the concentration needed to halve the response being measured) on M2 (setting [1]) is > 10 µM; at human M1 receptor (setting [2]) it was 1 to 10 µM; on M3 it was > 10 µM.
Consider `N#Cc1ccc(N2C3CCC2CN(C(=O)COCCc2cccc4ncnn24)C3)nc1` [Example 183, 6-{3-[2-(2-{[1,2,4]triazolo[1,5-a]pyridin-5-yl}ethoxy)acetyl]-3,8-diazabicyclo[3.2.1]octan-8-yl}pyridine-3-carbonitrile], for which the IC50 at M2 (setting [1]) was > 10 µM; at human M1 receptor, < 0.1 µM; at M3 it was 1 to 10 µM.
For `N#Cc1ccc(N2C3CCC2CN(C(=O)COCc2cccn4ncnc24)C3)nc1` [Example 184, 6-{3-[2-({[1,2,4]triazolo[1,5-a]pyridin-8-yl}methoxy)acetyl]-3,8-diazabicyclo[3.2.1]octan-8-yl}pyridine-3-carbonitrile], the figures for the IC50 on M2 (setting [1]), at human M1 receptor and at M3 were > 10 µM, < 0.1 µM and > 10 µM, respectively.
As for `N#Cc1ccc(N2C3CCC2CN(C(=O)CCOCc2cccc4nccn24)C3)nc1` [Example 186, 6-{3-[3-({imidazo[1,2-a]pyridin-5-yl}methoxy)propanoyl]-3,8-diazabicyclo[3.2.1]octan-8-yl}pyridine-3-carbonitrile], the IC50 on M2 (setting [1]) is > 10 µM; on human M1 receptor it was < 0.1 µM; on M3 it was 1 to 10 µM.
Consider `N#Cc1ccc(N2C3CCC2CN(C(=O)CCOCc2cccc4c2OCO4)C3)nc1` [Example 187, 6-(3-{3-[(2H-1,3-benzodioxol-4-yl)methoxy]propanoyl}-3,8-diazabicyclo[3.2.1]octan-8-yl)pyridine-3-carbonitrile], for which the IC50 on M2 (setting [1]) is > 10 µM; on human M1 receptor, 0.1 to 1 µM; at M3, > 10 µM.
Regarding `N#Cc1ccc(N2C3CCC2CN(C(=O)CCOCc2cccc4ncc(C(F)(F)F)n24)C3)nc1` [Example 188, 6-[3-(3-{[3-(trifluoromethyl)imidazo[1,2-a]pyridin-5-yl)methoxy}propanoyl)-3,8-diazabicyclo[3.2.1]octan-8-yl)pyridine-3-carbonitrile], the values for the half-inhibitory concentration (IC50) at M2 (setting [1]), on human M1 receptor (setting [2]) and on M3 were 1 to 10 µM, 1 to 10 µM and > 10 µM, respectively.
As for `O=C(CCNCc1cccc2ncnn12)N1CC2CCC(C1)N2c1ccc(-c2ccccc2)cn1` [Example 193, 1-[8-(5-phenylpyridin-2-yl)-3,8-diazabicyclo[3.2.1]octan-3-yl]-3-[({[1,2,4]triazolo[1,5-a]pyridin-5-yl}methyl)amino]propan-1-one], the values for the IC50 at M2 (setting [1]), on human M1 receptor (setting [2]) and on M3 were > 10 µM, 1 to 10 µM and 1 to 10 µM, respectively.
With `N#Cc1ccc(N2C3CCC2CN(C(=O)C2CC(=Cc4cccc5ncccc45)C2)C3)nc1` (stereo not drawn) [Example 194, 6-(3-{3-[(quinolin-5-yl)methylidene]cyclobutanecarbonyl}-3,8-diazabicyclo[3.2.1]octan-8-yl)pyridine-3-carbonitrile], the results for the IC50 on M2, on human M1 receptor and on M3 were 0.1 to 1 µM, < 0.1 µM and 1 to 10 µM, respectively.
Turning to `N#Cc1ccc(N2C3CCC2CN(C(=O)C2CC(=Cc4cccc5cnccc45)C2)C3)nc1` (stereo not drawn) [Example 195, 6-(3-{3-[(isoquinolin-5-yl)methylidene]cyclobutanecarbonyl}-3,8-diazabicyclo[3.2.1]octan-8-yl)pyridine-3-carbonitrile], the IC50 at M2 (setting [1]), at human M1 receptor (setting [2]) and on M3 was 1 to 10 µM in each case.
As for `N#Cc1ccc(N2C3CCC2CN(C(=O)[C@H]2C[C@H](Oc4cccc5ncsc45)C2)C3)nc1` [Example 197, 6-{3-[(1r,3r)-3-(1,3-benzothiazol-7-yloxy)cyclobutanecarbonyl]-3,8-diazabicyclo[3.2.1]octan-8-yl}pyridine-3-carbonitrile], the IC50 on M2 (setting [1]) is > 10 µM; on human M1 receptor, 0.1 to 1 µM; at M3 it was > 10 µM.
